Test results: patent US20130131069A1, “METHOD FOR TREATMENT OF SOLID MALIGNANCIES INCLUDING ADVANCED OR METASTATIC SOLID MALIGNANCIES” (Boehringer Ingelheim International GmbH, priority 2011, published 2013)

How the values were obtained:
[1] = test system: advanced or metastatic solid malignancies; test: Clinical trial: toxicity guided dose escalation study, 2-hr infusion on days 1 and 8 every 3 weeks; format: in vivo
Description: (§1) Sequential cohorts of 3-6 patients with advanced or metastatic solid malignancies received a 2-hr infusion of volasertib on days 1 and 8 every 3 weeks in a toxicity guided dose escalation study. There were 4 prespecified doses (50-200 mg).
(§2) 27 Asian patients with advanced solid malignancies were treated. […] MTD was 150 mg for above described schedule. The median number of initiated courses was 3 over all dose groups (range 1-21). […] Two patients with bladder cancer and melanoma, respectively had partial responses.

[2] = Clinical trial: pharmacokinetics in patients; format: in vivo, human; settings: 2-hr i.v. infusion days 1 and 8 every 3 weeks
Description: as §1, §2

[3] = administered at two days during a 21 day treatment cycle

CC[C@@H]1C(=O)N(C)c2cnc(Nc3ccc(C(=O)N[C@H]4CC[C@H](N5CCN(CC6CC6)CC5)CC4)cc3OC)nc2N1C(C)C [Volasertib, N-[trans-4-[4-(cyclopropylmethyl)-1-piperazinyl]cyclohexyl]-4-[[(7R)-7-ethyl-5,6,7,8-tetrahydro-5-methyl-8-(1-methylethyl)-6-oxo-2-pteridinyl]amino]-3-methoxy-benzamide]
MTD ([1]; 2-hr infusion on days 1 and 8 of 21 day cycle): 150 mg
patients with partial responses (bladder cancer and melanoma, respectively) ([1]; 27 patients treated, days 1 and 8 every 3 weeks): Two
patients achieved partial response (preliminary anti-tumor activity) [1, 3]: 1 patient
patients achieved stable disease [1, 3]: 10 patients
dose limiting toxicities (DLTs) ([1]; human, in vivo): reversible thrombocytopenia, neutropenia and febrile neutropenia
PK behavior [2]: multi-compartmental
clearance ([2]; human, in vivo, iv): 807 mL/min
half-life ([2]; human, in vivo, iv, read-out: mean terminal elimination half-life (converted)): 107 h
Vd ([2]; human, in vivo, iv, read-out: volume of distribution): 4500 L
